Tests used:
Type in all cases: cell-based, mouse
skeletal muscle = test: Contractile function (tetanic force, relaxation) during drug exposure
Description: To ensure that this inhibition was not caused by a generalized, unspecific inhibitory effect of the drug, contractile function was tested during exposure to 2-APB.

soleus muscles [1] = test: Insulin-mediated 2-deoxyglucose (2-DG) uptake in isolated soleus muscles; settings: insulin 10 milliunits ml^−1
Description: (§1) Adult male mice (NMRI strain) were housed at room temperature and fed ad libitum. Animals were killed by rapid neck disarticulation and muscles removed. Extensor digitorum longus (EDL; mainly fast-twitch fibers)) and soleus (mainly slow-twitch fibers) muscles were used for measurements of 2-deoxyglucose (2-DG) uptake. Flexor digitorum brevis (FDB, mainly fast-twitch fibers) muscles were used in single fiber experiments. All procedures were approved by the local ethics committee.
(§2) 2-DG uptake was measured essentially as described elsewhere (Shashkin et al. (1995) J Biol Chem 270:25613-25618; Le Marchand-Brustel et al. (1979) J Clin Invest 64:1505-1515). Briefly, muscles were incubated at 35° C. in Krebs bicarbonate buffer containing 2 mmol 1^−1 pyruvate (no glucose) ±an antagonist of SMCE, either 2-APB, a relatively specific inhibitor of SMCE that appears to act directly on SMCE channels (Braun et al. (2001) J Biol Chem 276:1063-1070; Broad et al. (2001) J Biol Chem 276:15945-15952), or MDL, another inhibitor of SMCE with different modes of action as compared to 2-APB (van Rossum et al. (2000) J Biol Chem 275:28562-28568). In other experiments muscles were incubated in 2,5-di(tert-butyl)-1,4-benzohydroquinone (TBQ), an inhibitor of SR Ca^2+ uptake (Westerblad et al. (1994) J Physiol 474:291-301). In some experiments insulin was added (10 milliunits ml^−1) after the initial 30 min incubation period. After an additional 30 min, 2-DG (1 mmol 1^−1; 1 mCi mmol^−1) and inulin (0.2 μCi per ml medium) were added. Muscles were blotted and frozen in liquid nitrogen 20 min after addition of 2-DG. Muscles were then weighed, digested in NaOH at 70° C., cooled and centrifuged, and aliquots of the supernatants were added to scintillation cocktail and counted for ^3H (2-DG) and ^14C (inulin).

EDL muscles [2] = test: Basal 2-DG uptake (no insulin) in isolated EDL muscles; settings: for Basal rate of 2-DG uptake, EDL: 2-APB 0.1 mmol 1^−1, MDL 300 μmol 1^−1, TBQ 500 nmol 1^−1, mean ± SEM (n)
Description: as §1, §2

EDL muscles [3] = test: Insulin-mediated 2-deoxyglucose (2-DG) uptake in isolated EDL muscles; settings: insulin 10 milliunits ml^−1
Description: as §1, §2
In some experiments on EDL muscles, 2-DG glucose uptake was measured after 2-APB removal in the continued presence of insulin. After the initial 30 min incubation period, insulin (10 milliunits ml^−1) was added and remained in the solution for the rest of the experiment. After an additional 30 min, 2-APB (100 μM) was added. […] Control muscles were treated in the same way except that 2-APB was never added.

soleus muscles [4] = test: Basal 2-DG uptake (no insulin) in isolated soleus muscles; settings: for Basal rate of 2-DG uptake, Soleus: MDL 300 μmol 1^−1, TBQ 500 nmol 1^−1, mean ± SEM (n)
Description: as §1, §2

single FDB muscle fibers = test: Free myoplasmic [Ca2+]i measured with indo-1 in single FDB muscle fibers; settings: global [Ca^2+]i, 75±13 before, n=4
Description: as §1
Experiments on single FDB muscle fibers were performed at 24° C. […] ([Ca^2+]i) was measured with the fluorescent Ca^2+ indicator indo-1 (Andrade et al. (1998) J Physiol 509:565-575). An indirect measure of SMCE was obtained by measuring the rate of Mn^2+ entry and quenching of the fluorescence intensity of fura-2 (Hopfet al. (1996) J Biol Chem 271:22358-22367). MnCl2 (100 μmol 1^−1) was added to the bath solution and the fura-2 injected muscle fiber was excited at 360±5 nm (the isosbestic wavelength of fiira-2 under our experimental conditions) while measuring the fluorescence light emitted at 495±5 nm. The rate of Mn^2+ quenching was measured during periods where the rate of decrease of the fluorescent light was stable, i.e. ignoring transient changes induced by changes of the bath solution. […]

[5] = system: store-mediated Ca^2+ entry (SMCE); test: Rate of Mn2+ quenching of fura-2 fluorescence in single FDB muscle fibers (indirect measure of SMCE)
Description: as §1
Experiments on single FDB muscle fibers were performed at 24° C. The isolated fiber was mounted in a stimulation chamber and continuously superfused by standard Tyrode solution (Lännergren et al. (1987) J Physiol 390:285-293). The free myoplasmic [Ca^2+] ([Ca^2+]i) was measured with the fluorescent Ca^2+ indicator indo-1 (Andrade et al. (1998) J Physiol 509:565-575). An indirect measure of SMCE was obtained by measuring the rate of Mn^2+ entry and quenching of the fluorescence intensity of fura-2 (Hopfet al. (1996) J Biol Chem 271:22358-22367). MnCl2 (100 μmol 1^−1) was added to the bath solution and the fura-2 injected muscle fiber was excited at 360±5 nm (the isosbestic wavelength of fiira-2 under our experimental conditions) while measuring the fluorescence light emitted at 495±5 nm. The rate of Mn^2+ quenching was measured during periods where the rate of decrease of the fluorescent light was stable, i.e. ignoring transient changes induced by changes of the bath solution. Measurements were not performed until 2 min after application of insulin, thus allowing time for insulin to act.

Compound | Increase of tetanic force (skeletal muscle; 2-APB 100 μmol 1^−1, 30 min (n=5), TBQ 500 nmol 1^−1 (n=4)) [%] | Relaxation speed (in words) (skeletal muscle; 2-APB 100 μmol 1^−1, 30 min, TBQ 500 nmol 1^−1) | Insulin-mediated 2-DG uptake, soleus (soleus muscles [1]; 100 nmol 1^−1 TBQ, n=6) [μmol 1^−1 min^−1] | Insulin-mediated 2-DG uptake, soleus (soleus muscles [1]; 500 nmol 1^−1 TBQ, n=4) [μmol 1^−1 min^−1] | Effect on insulin-mediated 2-DG uptake, soleus (in words) (soleus muscles [1]) | Effect on basal 2-DG uptake, EDL (in words) (EDL muscles [2]) | Basal rate of 2-DG uptake, EDL (EDL muscles [2]) | Insulin-mediated 2-DG uptake, EDL (EDL muscles [3]; 100 nmol 1^−1 TBQ, n=6) [μmol 1^−1 min^−1] | Insulin-mediated 2-DG uptake, EDL (EDL muscles [3]; 500 nmol 1^−1 TBQ, n=4) [μmol 1^−1 min^−1] | Effect on insulin-mediated 2-DG uptake, EDL (in words) (EDL muscles [3]) | Effect on basal 2-DG uptake, soleus (in words) (soleus muscles [4]) | Basal rate of 2-DG uptake, Soleus (soleus muscles [4]) | Reversibility of the force reduction on washout (skeletal muscle; 100 μmol 1^−1 MDL) | Reduction of tetanic force (skeletal muscle; 100 μmol 1^−1 MDL, 30 min of exposure, n=4) [%] | [Ca^2+]i after application of insulin (single FDB muscle fibers) [nmol 1^−1] | Increase in the rate of Mn^2+ quenching on addition of insulin ([5]; 0 mmol 1^−1 glucose, n=5) | Insulin-induced change of the rate of Mn^2+ quenching (in words) ([5]; 5.5 mmol 1^−1 glucose, mean data, n=6) | Recovery of the 2-APB-induced decrease of quenching rate by insulin ([5]; insulin 10 mU ml^−1 in continued presence of 2-APB 100 μmol 1^−1)
CC(C)(C)c1cc(O)c(C(C)(C)C)cc1O [TBQ, 2,5-di(tert-butyl)-1,4-benzohydroquinone] | 4±2 | slight slowing of relaxation | 150±7 | 179±8 | no effect | no significant effect | 37 ± 6 (4) μmol 1^−1 min^−1 | 93±5 | 103±4 | no effect | no significant effect | 63 ± 5 (4) μmol 1^−1 min^−1 |  |  |  |  |  | 
c1ccc([C@H]2CCC[C@H]2NC2=NCCCCCCCCCCC2)cc1 (relative stereo) [MDL, cis-N-(2-phenylcyclopentyl)azacyclotridec-1-en-2-amine] |  |  |  |  | decreased insulin-mediated 2-DG uptake in a dose-dependent manner | not significantly affected | 42 ± 3 (4) μmol 1^−1 min^−1 |  |  | decreased insulin-mediated 2-DG uptake in a dose-dependent manner | not significantly affected | 42 ± 4 (4) μmol 1^−1 min^−1 | not reversed on washout | 22±2 |  |  |  | 
insulin |  |  |  |  |  |  |  |  |  |  |  |  |  |  | 74±13 | about 10% | no significant insulin-induced change | about half
